Laboratory results from patent publication US8445480B2, “CETP inhibitors derived from benzoxazole arylamides” (Merck Sharp & Dohme Corp., priority 2007, dated 2013).

Target: T1, recombinant human CETP (Homo sapiens, UniProt P11597)
T1 construct: made in house; host or cells: CHO cells
T1 sequence (P11597 18-493): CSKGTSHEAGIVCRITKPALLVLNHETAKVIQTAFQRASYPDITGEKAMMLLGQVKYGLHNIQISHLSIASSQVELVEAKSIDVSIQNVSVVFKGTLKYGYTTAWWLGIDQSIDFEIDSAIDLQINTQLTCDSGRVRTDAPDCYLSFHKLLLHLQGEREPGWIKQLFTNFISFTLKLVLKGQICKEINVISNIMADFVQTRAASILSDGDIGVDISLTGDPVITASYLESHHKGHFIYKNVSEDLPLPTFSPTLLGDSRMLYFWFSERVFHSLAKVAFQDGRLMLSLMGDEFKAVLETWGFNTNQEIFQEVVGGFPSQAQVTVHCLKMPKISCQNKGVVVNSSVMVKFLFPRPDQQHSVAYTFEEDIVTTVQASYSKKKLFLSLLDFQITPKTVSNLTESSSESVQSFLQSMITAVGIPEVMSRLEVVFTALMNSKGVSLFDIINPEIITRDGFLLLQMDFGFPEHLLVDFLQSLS
Assay: CETP assay, in vitro continuous fluorescence assay of CE transfer (BODIPY-CE donor particles)
Format: biochemical
Details: CE transfer reaction, 3% human serum, 25° C.; read-out: IC50 value as measured for the CE transfer reaction
Description: An in vitro continuous assay for determining IC50's to identify compounds that are CETP inhibitors was performed based on a modification of the method described by Epps et al. employing BODIPY®-CE as the cholesteryl ester lipid donor and BODIPY®-TG as the triglyceride lipid donor. See Epps et al. (1995) Method for measuring the activities of cholesteryl ester transfer protein (lipid transfer protein), Chem. Phys. Lipids. 77, 51-63.
Particles used in the assay were created from the following materials by probe sonication essentially as described by Epps et al. Synthetic cholesteryl ester (CE) donor HDL particles contained DOPC (Dioleoyl Phosphatidyl Choline), BODIPY®-CE (Molecular Probes C-3927), triolein (a triglyceride), dabcyl dicetylamide, (a non-diffusible quencher molecule to reduce background fluorescence) and apoHDL. Synthetic triglyceride (TG) donor HDL particles contained DOPC, BODIPY®-TG, and apoHDL. […] Particle concentrations were expressed in terms of protein concentration as determined by BCA assay (Pierce, USA). […]
Assays were performed in Dynex Microfluor 2 U-bottom black 96-well plates (Cat #7205). […] CE transfer reactions were performed as follows: final concentrations of materials were: 2.5 ng/μCE donor particles, 7.5 ng/μL acceptor particles (each expressed by protein content), 1×CETP buffer, 14-30 nM recombinant human CETP (expressed in CHO cells and partially purified), and up to 2% DMSO when testing compounds; reactions were followed in a fluorescence plate reader (Molecular Devices Spectramax GeminiXS) set for a 45 minute kinetic run at 25° C. which read the samples every 45 sec at Ex=480 nm, Em=511 nm, with a cutoff filter at 495 nm, photomultiplier tube setting of medium, calibration on, and 6 reads/well. […] TG transfer was measured at an excitation wavelength of 538 nm while reading emission at 568 nm every 45 sec for 45 min at 37° C. with a cutoff filter at 550 nm.
Data were evaluated by obtaining an initial rate, expressed in relative fluorescence units per second, for the pseudolinear portion of the curve, often 0-500 or 1000 sec. […]

| Compound | IC50 [nM] |
| --- | --- |
| CC(C)c1cc(C#N)cc2nc(-c3ccc(C(=O)NCC4CCN(Cc5cccc(C(F)(F)F)c5)CC4)cc3)oc12 [Example 58] | 13 to 60 |
| CC(C)c1cc(C#N)cc2nc(-c3ccc(C(=O)NCC4CCN(c5ccc(C(F)(F)F)cn5)CC4)cc3)oc12 [Example 3] | 13 to 60 |
| CC(C)c1cc(C#N)cc2nc(-c3ccc(C(=O)NCC4CCN(c5nccc(C(F)(F)F)n5)CC4)cc3)oc12 [Example 1, 4-(5-Cyano-7-isopropyl-1,3-benzoxazol-2-yl)-N-({1-[4-(trifluoromethyl)pyrimidin-2-yl]piperidin-4-yl}methyl)benzamide] | 13 to 60 |
